Results taken from patent publication US8916586B2, “Anti-angiogenic compound” (University College Dublin—National University of Ireland, …, priority 2011, dated 2014).
“Also recorded” adds a separate entry of the source.

What was measured:
[1] = system: hyaloid vasculature in zebrafish; test: Zebrafish developmental angiogenesis assay: number of primary branches of hyaloid vasculature on dissected lens; assay type: in vivo; conditions: for dose-dependence of inhibition of hyaloid vasculature development: increasing concentrations between 1-10 μM, 5 dpf; for inhibition of intraocular angiogenesis (hyaloid vessels) in library screen: 5 day old larvae
Description: We have used the zebrafish model as an in vivo screen for chemical libraries as the small size and transparency of the zebra fish enables high-content screens in multi-well plate formats (MacRae and Peterson, 2003; Pichler et al., 2003; Peterson et al., 2004; den Hertog, 2005; Zon and Peterson, 2005). […] To identify anti-angiogenic drugs we used a transgenic line of zebrafish that expresses a fluorescent reporter (EGFP) specifically in vasculature (Tg(fli1:efgp)). This line was obtained from the Zebrafish International Resource Center. Our assay involved screening the effect of drugs in the library on the development of blood vessels in zebrafish. Specifically, we looked at the integrity of vessels developing in the eye (hyaloid vessels attached to the lens) and in the trunk.
All experiments were carried out under ethical approval granted by the UCD animal research ethics committee. Tg(fli1:EGFP) zebrafish were maintained according to standard procedures on a 14 hr light/10 hr dark cycle at 28° C. Referring to the schematic of FIG. 1A, embryos were obtained by natural spawning and developmental stages established by time and morphological criteria. A chemical library containing numerous compounds was screened (FIG. 1A). In this specific example, the chemical library contained 5000 compounds of the DIVERSet™ collection from ChemBridge Corp., USA. At 24 hours post fertilisation (hpf), 5 embryos per well were placed in […] of Embryo Medium/1% DMSO and incubated with drug at 28° C. on a 14 h light/10 h dark cycle. Larvae were euthanised, and fixed in 4% PFA at 4° C. overnight before analysis. (FIG. 1A).
Right lenses were dissected from the larvae and transferred to depression slides for observation under epi-fluorescence in the Olympus SZX16 and to cover-slip bottom Petri-dishes for confocal microscopy in a Zeiss UV510 META LSM system (20× and 40× inverted objectives). To achieve appropriate orientation, lenses were embedded in 10% methyl-cellulose and manipulated with a tungsten needle (0.5 mm diameter). Patterning of the hyaloid vessels on the treated larval lenses was compared to DMSO controls and the archetypal pattern previously described (Alvarez et al., 2007; Alvarez et al., 2009). The number of primary vessels radiating from the back of the lens (3-4 main branches at 5 dpf in controls and previously described), was counted and the average number was graphed for each drug. From screens of ˜1600 small molecules, four “hits” that inhibited the number of primary hyaloids vessels were identified (FIG. 1B).
To validate the “hits” from the library screen, dose-dependence experiments were conducted by screening the drugs in the assay described in Example 2 above but at a range of increasing concentrations between 1-10 μM. Larvae were maintained under the drug treatments at 28° C. on 14 hr light/10 hr dark cycle until 5 days post fertilisation (dpf), when they were euthanised and fixed in 4% PFA at 4° C. overnight before analysis. The average number of primary hyaloids branches was graphed for each concentration of drug. […] One of the lead compounds identified by the screen of chemical library was 11B which has the chemical name 2-[2-2-quinolinyl)vinyl]phenol and its structure shown below: […]

[2] = system: trunk intersegmental vessels of zebrafish; test: Quantification of intersegmental vessel number in zebrafish larvae; assay type: in vivo; conditions: for inhibition of developmental angiogenesis of the trunk intersegmental vessels / inhibition at 10 µM: 10 μM; for inhibition of developmental angiogenesis of the trunk intersegmental vessels: added at 6 hours post-fertilisation; for dose-dependence of inhibition of intersegmental vessel development: 0.1-10 μM; for dose-dependence of inhibition of intersegmental vessel development / inhibition at 10 µM: added at 6 hours post fertilisation; for inhibition at 10 µM: Danio rerio, read-out: inhibition of intersegmental vessel formation
Method: […] Larvae were manually dechorionated, euthanised, and fixed in 4% PFA at 4° C. overnight before analysis. The larvae were then washed with PBS and transferred to depression slides for observation under epi-fluorescence in an Olympus SZX16 fluorescent microscope. The number of intersegmental vessels was counted and the average number was graphed for each drug. […] At the highest concentration (10 μM), 11B was seen to inhibit intersegmental vessel formation by 44%. 11F inhibited intersegmental vessel formation by 16% at the highest concentration (10 μM).

zebrafish larvae = test: Visual function by optokinetic response (OKR) in zebrafish larvae; assay type: in vivo; conditions: treated from day 2-5 or day 3-5
Method: Visual function was assessed using the optokinetic response, a behavioural assay that tests the ability of larval zebrafish to track moving stripes (Brockerhoff 2006). […] For these experiments the compounds were screened in zebrafish larvae as described above except that the drug (compound 11B) was added at either day 1, 2, 3 or 4, and all treated larvae were analysed at day 5.

[3] = system: mouse model of oxygen induced retinopathy (OIR); test: Mouse oxygen-induced retinopathy (OIR) model of ocular neovascularisation; assay type: in vivo; conditions: for avascular area of the retina in treated eyes: postnatal day 12-17, intravitreal
Method: To assess the ability of compound 11B to inhibit ocular neovascularisation in mammalian eyes, 11B was tested in the mouse model of oxygen induced retinopathy (OIR). […] 11B was injected intravitreally into a mouse model of oxygen-induced retinopathy (OIR). The OIR model was generated by placing postnatal day 7 (P7) mouse pups into hyperoxia (75% oxygen) for 5 days and then removing them to normoxia (21%) on postnatal day 12 (P12). The hyperoxic (high oxygen) environment causes retinal blood vessels to regress between P7 and P12. The normoxic environment on P12 is a relatively hypoxic (low oxygen) environment for the mice and causes the growth of new blood vessels (angiogenesis). For all samples, eyes were enucleated, fixed, flat mounted and then stained with an isolectin antibody to visualise the blood vessels. Blood vessels were quantified and those treated with lead compounds compared to controls.

[4] = system: VEGF secreted from explant cultures of human colorectal cancers; test: VEGF secretion from human colorectal tumour explants (ELISA); assay type: cell-based; conditions: 72 hours
Method: (§1) Human colorectal tumour samples were taken directly from the pathology laboratory after surgery once adequate material was taken for diagnostic testing. The tumour samples were washed and stored in DMSO/tumour conditioning media (TCM). The samples were snap-frozen in liquid nitrogen and stored at −80° C. until compound testing was performed. Prior to compound testing, the tumours were thawed and incubated in fresh TCM for 24 hours. […] The TCM solutions were collected and stored at −20° C. and the remaining tumour explants were snap-frozen in liquid nitrogen and stored at −80° C. The protein content of each tumour sample was determined using the BCA protein assay. ELISA was used to determine the levels of VEGF, IL-8, MCP-1, GRO-α, IL-1β and IL-6. The secretion data were normalised according to the tumour sample's protein content.

[5] = system: IL-6 secreted from explant cultures of human colorectal cancers; test: IL-6 secretion from human colorectal tumour explants (ELISA); assay type: cell-based; conditions: 72 hours
Method: as §1

[6] = system: hyaloid vasculature in zebrafish; test: Zebrafish developmental angiogenesis assay: number of primary branches of hyaloid vasculature on dissected lens; assay type: in vivo
[7] = 5 μM, treated day 1-5, analysed 5 dpf
[8] = 10 μM, treated day 1-5, analysed 5 dpf
[9] = 1 μM and 10 μM tested, concentration not given at place

Oc1ccccc1/C=C/c1ccc2ccccc2n1 [11B]
number of primary branches of hyaloid vasculature ([1]; 4 μM, analysed 5 dpf): significant inhibition
number of primary branches of hyaloid vasculature [1, 7]: significant inhibition; also recorded: significant reduction
number of primary branches of hyaloid vasculature ([1]; 7.5 μM, analysed 5 dpf): significant inhibition
anti-angiogenic effect compared with Avastin, number of primary hyaloid branches ([1]; 10 μM): more effective anti-angiogenic effect than Avastin
number of primary branches of hyaloid vasculature [1, 8]: significant inhibition; also recorded: significant reduction
dose-dependence of inhibition of hyaloid vasculature development [1]: dose-dependent and statistically significant manner; also recorded: dose-dependent inhibition
inhibition of intraocular angiogenesis (hyaloid vessels) in library screen [1]: inhibit intraocular angiogenesis
inhibition of developmental angiogenesis of the trunk intersegmental vessels [2]: significant inhibition
dose-dependence of inhibition of intersegmental vessel development [2]: dose-dependent and statistically significant manner
inhibition at 10 µM [2]: 44%
effect on existing (earlier formed) intersegmental vessels of the trunk ([2]; added from day 1-5): no effect; also recorded: intact
visual function, optokinetic response (OKR) (zebrafish larvae): no significant effect; also recorded: not statistically different from controls
avascular area of the retina in treated eyes ([3]; 0.5 μM): ~33%
avascular area of the retina in treated eyes ([3]; 3 μM): ~30%
increase in avascular retina relative to the avascular area in the P17 control ([3]; intraocular injections): ~2.4 fold
inhibition of ocular neovascularisation in OIR model ([3]; intravitreal injection): inhibited angiogenesis; also recorded: can inhibit intraocular neovascularisation
level of VEGF secreted by human tumour explants [4, 9]: significantly reduced
level of VEGF secreted by human tumour explants ([4]; 10 μM): significantly reduces
level of IL-6 secreted by human tumour explants [5, 9]: significantly reduced
level of IL-6 secreted by human tumour explants ([5]; 1 μM): significantly reduces
level of IL-6 secreted by human tumour explants ([5]; 10 μM): significantly reduces
number of primary branches of hyaloid vasculature ([6]; 5 μM, treated day 2-5): significant reduction
number of primary branches of hyaloid vasculature ([6]; 5 μM, treated day 3-5): no significant effect
number of primary branches of hyaloid vasculature ([6]; 5 μM, treated day 4-5): no significant effect
number of primary branches of hyaloid vasculature ([6]; 10 μM, treated day 2-5): significant reduction
number of primary branches of hyaloid vasculature ([6]; 10 μM, treated day 3-5): significant reduction
number of primary branches of hyaloid vasculature ([6]; 10 μM, treated day 4-5): no effect
time-dependence of inhibition of developmental angiogenesis in the eye ([6]; drug added at day 1, 2, 3 or 4, analysed at day 5): time-dependent effect; also recorded: time-dependent manner

COc1cc2c(C3CCCN3C)cnc(Cc3ccc4c(c3)OCO4)c2cc1OC (centres unmarked) [11F, 1-(1,3-benzodioxol-5-ylmethyl)-6,7-dimethoxy-4-(1-methyl-2-pyrrolidinyl)isoquinoline]
number of primary branches of hyaloid vasculature [1, 7]: significant inhibition
number of primary branches of hyaloid vasculature [1, 8]: significant inhibition
dose-dependence of inhibition of hyaloid vasculature development [1]: dose-dependent and statistically significant manner
inhibition of intraocular angiogenesis (hyaloid vessels) in library screen [1]: inhibit intraocular angiogenesis
inhibition of developmental angiogenesis of the trunk intersegmental vessels [2]: modest but significant inhibition
dose-dependence of inhibition of intersegmental vessel development [2]: dose-dependent and statistically significant manner
inhibition at 10 µM [2]: 16%
level of VEGF secreted by human tumour explants [4, 9]: significantly reduced
level of VEGF secreted by human tumour explants ([4]; 1 μM): significantly reduced
level of VEGF secreted by human tumour explants ([4]; 10 μM): significantly reduced
